Results taken from ChEMBL document CHEMBL3244296, “3-Aryl- and 3-hydroxy-3-aryloctahydropyrido[2,1-c][1,4]oxazines. Synthesis, stereochemistry, and central nervous system pharmacological actions” (J Med Chem, 1978).
Activity calls are given as the source filed them. No cut-off for these calls is given here.

Experiments:
Mus musculus [1] = assay: Reduction in spontaneous locomotor activity in mouse at 40 mg/kg, ip measured for 30 mins; format: functional, organism-based; set-up: dose 40 mg/kg
Mus musculus [2] = assay: Anticonvulsant activity in ip dosed mouse assessed as protection against maximal electroshock-induced seizures measured as lowest dose required for activity; format: functional; details: read-out: MED
Mus musculus [3] = assay: Anticonvulsant activity in mouse assessed as protection against subcutaneous metrazol-induced seizures at <= 300 mg/kg, ip; format: functional, organism-based; set-up: dose 300 mg/kg
Rattus norvegicus [4] = assay: Anorexic activity in ip dosed Sprague-Dawley rat assessed as dose required to reduce food intake by 50%; format: functional
Rattus norvegicus [5] = assay: Anorexic activity in Sprague-Dawley rat assessed as reduction in food intake at 10 to 40 mmol/kg, ip; format: functional, organism-based
Mus musculus [6] = assay: Stimulation of spontaneous locomotor activity in mouse at 20 mg/kg, ip measured for 30 mins relative to control; format: functional
Mus musculus [7] = assay: Anticonvulsant activity in ip dosed mouse assessed as protection against maximal electroshock-induced seizures; format: functional
[8] = Neurotoxicity in ip dosed mouse by rotarod test; format: toxicity, organism-based; details: in vivo
[9] = Protective index, ratio of TD50 for neurotoxicity in ip dosed mouse to ED50 for anticonvulsant activity in ip dosed mouse; format: toxicity, organism-based; details: in vivo, read-out: Ratio TD50/ED50
[10] = Toxicity in ip dosed mouse assessed as lethality; format: organism-based; details: in vivo
Mus musculus [11] = assay: Anticonvulsant activity in ip dosed mouse assessed as time to reach peak effect; format: functional
Mus musculus [12] = assay: Neurotoxicity in ip dosed mouse assessed as time to reach peak effect by rotarod test; format: toxicity, organism-based; details: in vivo
Mus musculus [13] = assay: Anticonvulsant activity in mouse assessed as protection against maximal electroshock-induced seizures at <= 300 mg/kg, ip; format: functional, organism-based; set-up: dose 300 mg/kg
Mus musculus [14] = assay: Anticonvulsant activity in ip dosed mouse assessed as protection against subcutaneous metrazol-induced seizures; format: functional; details: read-out: MED
Rattus norvegicus [15] = assay: Toxicity in Sprague-Dawley rat assessed as lethality at 20 to 40 mg/kg, ip; format: organism-based; set-up: dose 20-40 mg/kg, route intraperitoneal; details: in vivo
Rattus norvegicus [16] = assay: Anorexic activity in Sprague-Dawley rat assessed as reduction in food intake at […], ip relative to control; format: functional; set-up: scale not given: the % may be the effect or the level left
Mus musculus [17] = assay: Reduction in spontaneous locomotor activity in mouse at 20 mg/kg, ip measured for 30 mins relative to control; format: functional, organism-based; set-up: dose 20 mg/kg
Rattus norvegicus [18] = assay: Anorexic activity in Sprague-Dawley rat assessed as reduction in food intake at 5 to 20 mmol/kg, ip; format: functional, organism-based
Mus musculus [19] = assay: Reduction in spontaneous locomotor activity in mouse at 5 mg/kg, ip measured for 30 mins relative to control; format: functional; set-up: scale not given: the % may be the effect or the level left; details: route intraperitoneal

COc1cccc(C2(O)CN3CCCCC3CO2)c1.Cl (configuration not stated)
Activity (Mus musculus [1]): Active
minimal effective dose (Mus musculus [2]): 100 mg/kg
Activity (Mus musculus [3]): inactive

Cl.c1ccc(C2CN3CCCCC3CO2)cc1 (configuration not stated)
Activity (Mus musculus [1]): Active
minimal effective dose (Mus musculus [2]): 100 mg/kg
Activity (Mus musculus [3]): inactive
Activity (Rattus norvegicus [4]): 108.4 mmol/kg
Activity (Rattus norvegicus [5]): inactive

CCC1(c2ccccc2)C(=O)N=C([O-])NC1=O.[Na+] (configuration not stated) [PHENOBARBITAL SODIUM]
Activity (Mus musculus [6]; route intraperitoneal): 215%
ED50 (Mus musculus [7]): 85700 µmol/kg
TD50 [8]: 333000 µmol/kg
selectivity ratio [9]: 3.88

COc1cc(C2CN3CCCCC3CO2)cc(OC)c1OC (configuration not stated)
Activity (Mus musculus [1]): Active

Cl.OC1(c2ccc(C(F)(F)F)cc2)CN2CCCCC2CO1 (configuration not stated)
Activity (Mus musculus [1]): Active
Activity (Mus musculus [6]): Active
minimal effective dose (Mus musculus [2]): 100 mg/kg
Activity (Mus musculus [3]): inactive
LD50 [10]: 468000 µmol/kg
Time (Mus musculus [11]): 0.5 h
Time (Mus musculus [12]): 0.5 h

Cl.OC1(c2ccccc2)CN2CCCCC2CO1 (configuration not stated)
Activity (Mus musculus [1]): Active
minimal effective dose (Mus musculus [2]): 100 mg/kg
Activity (Mus musculus [3]): inactive

O=[N+]([O-])c1ccc(C2(O)CN3CCCCC3CO2)cc1 (configuration not stated)
Activity (Mus musculus [1]): inactive

COc1cc(C2(O)CN3CCCCC3CO2)cc(OC)c1OC.Cl (configuration not stated)
Activity (Mus musculus [1]): Active
Activity (Mus musculus [13]): inactive
minimal effective dose (Mus musculus [14]): 300 mg/kg

Cl.FC(F)(F)c1ccccc1C1CN2CCCCC2CO1 (configuration not stated)
Activity (Mus musculus [1]): Active
minimal effective dose (Mus musculus [2]): 30 mg/kg
minimal effective dose (Mus musculus [14]): 300 mg/kg
TD50 [8]: 716000 µmol/kg
Time (Mus musculus [11]): 0.5 h
Time (Mus musculus [12]): 0.5 h

Cl.Clc1ccc(C2CN3CCCCC3CO2)cc1 (configuration not stated)
Activity (Mus musculus [1]): Active
Activity (Rattus norvegicus [15]): Toxic
Activity (Rattus norvegicus [16]): 40%
Activity (Rattus norvegicus [5]): Active

Cl.OC1(c2ccccc2C(F)(F)F)CN2CCCCC2CO1 (configuration not stated)
Activity (Mus musculus [1]): Active
minimal effective dose (Mus musculus [2]): 30 mg/kg
Activity (Mus musculus [3]): inactive
TD50 [8]: 547000 µmol/kg
Time (Mus musculus [11]): 0.5 h
Time (Mus musculus [12]): 0.5 h

CC(=O)Oc1cccc(C2CN3CCCCC3CO2)c1 (configuration not stated)
Activity (Mus musculus [1]): inactive

Brc1ccc(C2CN3CCCCC3CO2)cc1 (configuration not stated)
Activity (Mus musculus [1]): Active

Oc1cccc(C2CN3CCCCC3CO2)c1 (configuration not stated)
Activity (Mus musculus [1]): inactive
Activity (Mus musculus [17]): Active

Cl.OC1(c2ccc(F)cc2)CN2CCCCC2CO1 (configuration not stated)
Activity (Mus musculus [1]): Active
minimal effective dose (Mus musculus [2]): 100 mg/kg
Activity (Mus musculus [3]): inactive

Cc1ccc(C2(O)CN3CCCCC3CO2)cc1.Cl (configuration not stated)
Activity (Mus musculus [1]): Active
minimal effective dose (Mus musculus [2]): 100 mg/kg
Activity (Mus musculus [3]): inactive

COc1cccc(C2CN3CCCCC3CO2)c1 (configuration not stated)
Activity (Mus musculus [1]): Active

Cl.FC(F)(F)c1cccc(C2CN3CCCCC3CO2)c1 (configuration not stated)
Activity (Mus musculus [1]): Active
minimal effective dose (Mus musculus [2]): 30 mg/kg
Activity (Mus musculus [3]): inactive
ED50 (Mus musculus [7]): 84600 µmol/kg
TD50 [8]: 263000 µmol/kg
selectivity ratio [9]: 3.11
Activity (Rattus norvegicus [4]): 55.9 mmol/kg
Activity (Rattus norvegicus [5]): Active
Time (Mus musculus [11]): 0.5 h
Time (Mus musculus [12]): 0.5 h

COc1ccc(C2(O)CN3CCCCC3CO2)cc1OC.Cl (configuration not stated)
Activity (Mus musculus [1]): Active
Activity (Mus musculus [13]): inactive
minimal effective dose (Mus musculus [14]): 100 mg/kg

Cl.FC(F)(F)c1ccc(C2CN3CCCCC3CO2)cc1 (configuration not stated)
Activity (Mus musculus [1]): Active
minimal effective dose (Mus musculus [2]): 30 mg/kg
minimal effective dose (Mus musculus [14]): 300 mg/kg
TD50 [8]: 408000 µmol/kg
Time (Mus musculus [11]): 0.5 h
Time (Mus musculus [12]): 0.5 h

Cl.OC1(c2cccc(C(F)(F)F)c2)CN2CCCCC2CO1 (configuration not stated)
Activity (Mus musculus [1]): Active
minimal effective dose (Mus musculus [2]): 30 mg/kg
Activity (Mus musculus [3]): inactive
ED50 (Mus musculus [7]): 78700 µmol/kg
TD50 [8]: 218000 µmol/kg
selectivity ratio [9]: 2.77
Activity (Rattus norvegicus [4]): 29.6 mmol/kg
Time (Mus musculus [11]): 0.5 h
Time (Mus musculus [12]): 0.5 h
Activity (Rattus norvegicus [18]): Active

Fc1ccc(C2CN3CCCCC3CO2)cc1 (configuration not stated)
Activity (Mus musculus [1]): Active
Activity (Mus musculus [13]): inactive
Activity (Mus musculus [3]): inactive

COc1ccc(C2CN3CCCCC3CO2)cc1 (configuration not stated)
Activity (Mus musculus [1]): Active

CC(=O)Nc1ccc(C2CN3CCCCC3CO2)cc1 (configuration not stated)
Activity (Mus musculus [1]): Active

CN(C)CCCN1c2ccccc2Sc2ccc(Cl)cc21.Cl [CHLORPROMAZINE HYDROCHLORIDE]
Activity (Mus musculus [19]): 83.6%

CC(=O)Oc1cccc(C2(O)CN3CCCCC3CO2)c1 (configuration not stated)
Activity (Mus musculus [1]): inactive

Cc1ccc(C2CN3CCCCC3CO2)cc1 (configuration not stated)
Activity (Mus musculus [1]): Active
Activity (Mus musculus [13]): inactive
Activity (Mus musculus [3]): inactive

COc1ccc(C2(O)CN3CCCCC3CO2)cc1 (configuration not stated)
Activity (Mus musculus [1]): Active
Activity (Mus musculus [13]): inactive
Activity (Mus musculus [3]): inactive

Oc1ccc(C2CN3CCCCC3CO2)cc1 (configuration not stated)
Activity (Mus musculus [1]): Active

OC1(c2ccc(Br)cc2)CN2CCCCC2CO1 (configuration not stated)
Activity (Mus musculus [1]): Active

COc1ccc(C2CN3CCCCC3CO2)cc1OC (configuration not stated)
Activity (Mus musculus [1]): Active

OC1(c2ccc(Cl)cc2)CN2CCCCC2CO1 (configuration not stated)
Activity (Mus musculus [1]): Active
Activity (Rattus norvegicus [5]): inactive

CCNC(C)Cc1cccc(C(F)(F)F)c1.Cl (configuration not stated) [FENFLURAMINE HYDROCHLORIDE]
Activity (Rattus norvegicus [4]): 16.8 mmol/kg
